Measured values reported in PMC6385358, “Discovery of ((1,2,4-oxadiazol-5-yl)pyrrolidin-3-yl)ureidyl derivatives as selective non-steroidal agonists of the G-protein coupled bile acid receptor-1” (Scientific Reports, 2019).

Target: T1, GPBAR1 (Homo sapiens, UniProt Q8TDU6)
T1 construct: expressed in transfected cells; host or cells: HEK-293T
T1 sequence (Q8TDU6 1-330): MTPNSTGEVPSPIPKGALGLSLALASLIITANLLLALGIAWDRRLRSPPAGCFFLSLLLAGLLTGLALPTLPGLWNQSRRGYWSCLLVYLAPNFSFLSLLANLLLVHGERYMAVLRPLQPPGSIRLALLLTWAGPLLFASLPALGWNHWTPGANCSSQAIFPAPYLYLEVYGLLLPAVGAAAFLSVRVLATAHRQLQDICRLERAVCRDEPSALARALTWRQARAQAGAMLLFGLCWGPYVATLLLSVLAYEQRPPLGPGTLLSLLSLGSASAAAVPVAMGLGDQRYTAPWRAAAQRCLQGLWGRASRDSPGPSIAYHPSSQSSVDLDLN
Assay: Luciferase reporter (CRE) transactivation assay in HEK-293T cells transfected with GPBAR1
Assay type: cell-based
Conditions: for Emax at 10 µM: HEK-293T, maximal transactivation of CRE, compound 10 μM vs TLCA 10 μM = 100%, read-out: Efficacy (% vs TLCA)
Procedure: The activity of compounds 1–14 on GPBAR1 was evaluated in a luciferase reporter assay using HEK-293T cells transfected with GPBAR1. The efficacy of tested compounds (Table 1) was measured using taurolithocholic acid (TLCA) as GPBAR1 reference compound[10],[11]. Each compound was tested at the concentration of 10 μM and transactivation activity of TLCA on a cAMP responsive element (CRE) (i.e. TGR5/GPBAR1) was considered equal to 100%. […] Thus, 9 and 10 (Table 1) turned out to be the most promising derivatives considering their low EC50 values and high activity efficacy. To further characterize the pharmacological properties of these compounds, we expanded their in vitro profile to common off-targets for bile acid receptor ligands.
Transactivation assay on HEK-293T cells was performed to investigate GPBAR1 activation, using compound 1–14 and TLCA as positive control at 10 µM, as previously reported.
Supplementary Figure S4. HEK-293T cells were transiently transfected with GPBAR1 and a reporter gene containing a cAMP responsive element in front of the luciferase gene. Cells were stimulated with compounds A-L (10 μM). TLCA (10 μM) was used as positive control. Luciferase activity served as a measure of the rise in intracellular cAMP following activation of GPBAR1. In all panels, results are expressed as mean ± standard error. ^∗p < 0.05 versus not treated cells (NT).

Row | Structure (SMILES) | Emax at 10 µM | GPBAR1 agonist activity in transactivation assay (10 μM, compared to TLCA)
1 | O[C@H]1CN[C@H](c2nc(-c3ccccc3)no2)C1 [Compound 1] | 58 to 121% | –
2 | [N-]=[N+]=N[C@@H]1CN[C@H](c2nc(-c3ccccc3)no2)C1 [Compound 2] | 58 to 121% | –
3 | N[C@@H]1CN[C@H](c2nc(-c3ccccc3)no2)C1 [Compound 3] | 58 to 121% | –

Now from value to compound:

Row | Emax at 10 µM | GPBAR1 agonist activity in transactivation assay (10 μM, compared to TLCA) | Structure (SMILES)
4 | 58 to 121% | moderate GPBAR1 agonist activity | O=C(Nc1ccc(C(F)(F)F)cc1)N[C@@H]1CN[C@H](c2nc(-c3ccccc3)no2)C1 [Compound 4]
5 | 58 to 121% | – | Cc1ccc(NC(=O)N[C@@H]2CN[C@H](c3nc(-c4ccccc4)no3)C2)cc1 [Compound 6]
6 | 58 to 121% | – | O=C(NCc1ccccc1)N[C@@H]1CN[C@H](c2nc(-c3ccccc3)no2)C1 [Compound 11]
